# Key:
# [1] = DRUGMATRIX: GABAA, Muscimol, Central radioligand binding (ligand: [3H] Muscimol); type: cell membranes, Rattus norvegicus, Wistar, Brain, Membrane; conditions: Not Active = under 50% inhibition at 10 µM
# [2] = target: Delta-type opioid receptor (Homo sapiens, UniProt P41143); type: cell membranes, HEK293, Membrane; conditions: hek293; also: in other assays of this panel Not Active means under 50% inhibition at 10 µM
# [3] = DRUGMATRIX: GABAA, Flunitrazepam, Central radioligand binding (ligand: [3H] Flunitrazepam); type: cell membranes, Rattus norvegicus, Wistar, Brain, Membrane; conditions: Not Active = under 50% inhibition at 10 µM
# Carbonic anhydrase 2 = Carbonic anhydrase 2 (Homo sapiens, UniProt P00918); assay: DRUGMATRIX: Carbonic Anhydrase II enzyme inhibition (substrate: 4-Nitrophenyl acetate (4-NPA)); type: tissue-based, Erythrocyte; conditions: erythrocyte; Not Active = under 50% inhibition at 10 µM
# [4] = target: T1, C-X-C chemokine receptor type 1 (Homo sapiens, UniProt P25024); also: in other assays of this panel Not Active means under 50% inhibition at 10 µM
# T1 sequence (P25024 whole entry): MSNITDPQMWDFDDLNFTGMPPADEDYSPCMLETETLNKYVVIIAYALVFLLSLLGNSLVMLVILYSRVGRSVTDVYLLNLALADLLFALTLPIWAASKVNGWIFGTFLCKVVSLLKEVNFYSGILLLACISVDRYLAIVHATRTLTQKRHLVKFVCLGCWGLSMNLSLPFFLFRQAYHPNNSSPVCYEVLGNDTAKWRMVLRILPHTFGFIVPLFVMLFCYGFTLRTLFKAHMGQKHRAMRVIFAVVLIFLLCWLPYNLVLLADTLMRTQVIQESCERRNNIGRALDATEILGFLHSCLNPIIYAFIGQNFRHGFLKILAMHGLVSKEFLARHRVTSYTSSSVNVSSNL
# D(1A) dopamine receptor = D(1A) dopamine receptor (Homo sapiens, UniProt P21728); assay: DRUGMATRIX: Dopamine D1 radioligand binding (ligand: [3H] SCH-23390); type: cell membranes, CHO, Membrane; conditions: cho; Not Active = under 50% inhibition at 10 µM
# Sequence of D(1A) dopamine receptor (P21728 whole entry): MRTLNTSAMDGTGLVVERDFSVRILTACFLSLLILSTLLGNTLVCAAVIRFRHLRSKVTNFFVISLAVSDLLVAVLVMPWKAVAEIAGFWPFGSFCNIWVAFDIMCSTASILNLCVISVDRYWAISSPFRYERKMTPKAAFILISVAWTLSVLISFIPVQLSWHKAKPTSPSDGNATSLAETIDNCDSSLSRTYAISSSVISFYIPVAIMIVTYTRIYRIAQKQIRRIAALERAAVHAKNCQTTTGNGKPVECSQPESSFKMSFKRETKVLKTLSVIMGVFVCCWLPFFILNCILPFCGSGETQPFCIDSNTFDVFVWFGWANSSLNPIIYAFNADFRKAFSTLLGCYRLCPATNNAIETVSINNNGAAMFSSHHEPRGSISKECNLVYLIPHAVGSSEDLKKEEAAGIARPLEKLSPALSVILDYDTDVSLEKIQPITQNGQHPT
# Substance-P receptor = Substance-P receptor (Homo sapiens, UniProt P25103); type: cell membranes, CHO, Membrane; conditions: cho; also: in other assays of this panel Not Active means under 50% inhibition at 10 µM
# Sequence of Substance-P receptor (P25103 whole entry): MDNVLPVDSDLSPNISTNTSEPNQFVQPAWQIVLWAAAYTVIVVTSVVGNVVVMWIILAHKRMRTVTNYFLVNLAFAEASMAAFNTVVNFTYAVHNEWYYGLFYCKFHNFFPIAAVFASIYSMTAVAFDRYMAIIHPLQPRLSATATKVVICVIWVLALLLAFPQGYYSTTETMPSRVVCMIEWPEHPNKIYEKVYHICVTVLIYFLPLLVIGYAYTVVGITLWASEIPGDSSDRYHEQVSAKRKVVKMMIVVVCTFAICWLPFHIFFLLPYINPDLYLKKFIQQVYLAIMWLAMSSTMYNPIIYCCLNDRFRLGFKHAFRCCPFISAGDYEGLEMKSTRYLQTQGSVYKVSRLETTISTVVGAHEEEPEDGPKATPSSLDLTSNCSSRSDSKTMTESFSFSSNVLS
# [5] = DRUGMATRIX: Phorbol Ester radioligand binding (ligand: [3H] PDBu); type: cell membranes, Mus musculus, ICR, Brain, Membrane; conditions: Not Active = under 50% inhibition at 10 µM
# Progesterone receptor = target: T2, Progesterone receptor (Bos taurus, UniProt Q690N0); assay: DRUGMATRIX: Progesterone radioligand binding (ligand: [3H] R-5020); type: tissue-based, Uterus; conditions: Not Active = under 50% inhibition at 10 µM
# T2 sequence (Q690N0 whole entry): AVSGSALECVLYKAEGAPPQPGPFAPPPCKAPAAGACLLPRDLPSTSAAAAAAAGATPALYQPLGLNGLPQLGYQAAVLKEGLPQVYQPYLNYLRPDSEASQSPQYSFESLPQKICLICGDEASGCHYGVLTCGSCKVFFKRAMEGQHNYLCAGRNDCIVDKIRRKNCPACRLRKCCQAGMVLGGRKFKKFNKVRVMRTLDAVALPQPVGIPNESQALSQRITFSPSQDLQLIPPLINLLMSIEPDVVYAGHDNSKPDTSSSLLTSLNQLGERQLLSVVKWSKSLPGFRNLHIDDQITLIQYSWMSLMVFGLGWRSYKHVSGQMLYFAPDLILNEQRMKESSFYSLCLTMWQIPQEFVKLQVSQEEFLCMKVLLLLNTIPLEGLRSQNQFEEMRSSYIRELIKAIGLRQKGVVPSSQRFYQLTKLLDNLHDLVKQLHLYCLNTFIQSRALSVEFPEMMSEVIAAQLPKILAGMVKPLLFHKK
# [6] = DRUGMATRIX: Glutamate, Kainate radioligand binding (ligand: [3H] Kainic acid); type: cell membranes, Rattus norvegicus, Wistar, Brain, Membrane; conditions: Not Active = under 50% inhibition at 10 µM
# Melanocortin receptor 3 = Melanocortin receptor 3 (Homo sapiens, UniProt P41968); type: cell membranes, Membrane; conditions: hek293; also: in other assays of this panel Not Active means under 50% inhibition at 10 µM
# Sequence of Melanocortin receptor 3 (P41968 whole entry): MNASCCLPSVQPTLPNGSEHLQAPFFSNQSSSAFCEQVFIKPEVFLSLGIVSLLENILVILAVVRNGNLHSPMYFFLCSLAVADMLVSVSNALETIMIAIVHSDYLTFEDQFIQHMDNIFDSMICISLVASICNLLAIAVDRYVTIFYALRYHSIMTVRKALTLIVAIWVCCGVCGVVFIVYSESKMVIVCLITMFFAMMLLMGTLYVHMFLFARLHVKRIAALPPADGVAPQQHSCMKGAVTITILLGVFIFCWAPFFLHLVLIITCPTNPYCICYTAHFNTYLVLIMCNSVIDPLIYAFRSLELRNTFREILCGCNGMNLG
# [7] = target: Aldo-keto reductase family 1 member B1 (Rattus norvegicus, UniProt P07943); type: tissue-based, Lens of camera-type eye
# Interstitial collagenase = target: T3, Interstitial collagenase (Homo sapiens, UniProt P03956); type: tissue-based, Rheumatoid synovial fibroblasts
# T3 sequence (P03956 whole entry): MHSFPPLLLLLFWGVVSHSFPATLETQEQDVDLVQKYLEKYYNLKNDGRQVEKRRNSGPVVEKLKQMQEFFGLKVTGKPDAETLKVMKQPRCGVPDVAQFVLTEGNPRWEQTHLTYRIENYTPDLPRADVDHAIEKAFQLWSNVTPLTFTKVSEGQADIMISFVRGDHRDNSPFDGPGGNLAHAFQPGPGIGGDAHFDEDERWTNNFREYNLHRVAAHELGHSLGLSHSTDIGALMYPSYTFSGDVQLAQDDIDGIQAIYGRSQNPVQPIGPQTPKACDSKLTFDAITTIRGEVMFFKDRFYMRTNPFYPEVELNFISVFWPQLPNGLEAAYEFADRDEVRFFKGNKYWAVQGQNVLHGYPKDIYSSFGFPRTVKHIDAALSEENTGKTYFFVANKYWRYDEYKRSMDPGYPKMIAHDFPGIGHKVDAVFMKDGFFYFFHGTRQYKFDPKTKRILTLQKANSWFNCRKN
# D(3) dopamine receptor = D(3) dopamine receptor (Homo sapiens, UniProt P35462); assay: DRUGMATRIX: Dopamine D3 radioligand binding (ligand: [3H] Spiperone); type: cell membranes, CHO, Membrane; conditions: cho
# Sequence of D(3) dopamine receptor (P35462 whole entry): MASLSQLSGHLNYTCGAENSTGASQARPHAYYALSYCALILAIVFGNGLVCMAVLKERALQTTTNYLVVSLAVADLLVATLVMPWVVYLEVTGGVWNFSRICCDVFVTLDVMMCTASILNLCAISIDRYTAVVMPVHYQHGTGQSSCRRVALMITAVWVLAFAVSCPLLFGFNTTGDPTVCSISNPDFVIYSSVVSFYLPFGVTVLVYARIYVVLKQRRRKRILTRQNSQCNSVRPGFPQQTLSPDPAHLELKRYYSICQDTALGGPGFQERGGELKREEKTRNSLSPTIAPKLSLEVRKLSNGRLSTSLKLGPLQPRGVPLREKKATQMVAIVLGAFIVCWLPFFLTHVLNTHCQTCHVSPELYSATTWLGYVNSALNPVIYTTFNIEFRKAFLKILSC
# [8] = target: Tyrosine-protein kinase Fyn (Homo sapiens, UniProt P06241); assay: biochemical; type: cell-based, Insect cells; conditions: insect cells
# Sequence of Tyrosine-protein kinase Fyn (P06241 whole entry): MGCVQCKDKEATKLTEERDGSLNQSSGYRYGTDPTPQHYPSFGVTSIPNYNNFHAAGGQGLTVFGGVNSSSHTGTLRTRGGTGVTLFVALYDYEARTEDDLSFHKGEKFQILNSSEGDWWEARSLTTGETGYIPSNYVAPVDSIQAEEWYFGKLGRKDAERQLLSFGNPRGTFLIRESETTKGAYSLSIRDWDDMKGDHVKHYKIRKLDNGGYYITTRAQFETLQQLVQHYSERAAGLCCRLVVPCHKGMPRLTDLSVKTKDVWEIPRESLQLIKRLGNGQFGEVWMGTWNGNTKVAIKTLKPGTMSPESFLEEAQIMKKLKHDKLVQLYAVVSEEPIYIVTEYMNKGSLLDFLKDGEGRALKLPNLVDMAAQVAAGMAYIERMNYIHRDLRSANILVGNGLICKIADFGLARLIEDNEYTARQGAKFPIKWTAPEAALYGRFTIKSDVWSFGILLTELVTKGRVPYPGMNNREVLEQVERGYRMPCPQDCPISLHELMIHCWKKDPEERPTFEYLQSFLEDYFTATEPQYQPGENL
# [9] = DRUGMATRIX: Serotonin (5-Hydroxytryptamine) 5-HT3 radioligand binding (ligand: [3H] GR-65630); type: cell membranes, Membrane; conditions: hek293; Not Active = under 50% inhibition at 10 µM
# [10] = DRUGMATRIX: Calcium Channel Type L, Dihydropyridine radioligand binding (ligand: [3H] Nitrendipine); type: cell membranes, Rattus norvegicus, Wistar, Cerebral cortex, Membrane; conditions: Not Active = under 50% inhibition at 10 µM
# [11] = target: Mitogen-activated protein kinase 14 (Homo sapiens, UniProt Q16539); design: species or system Escherichia coli
# Sequence of Mitogen-activated protein kinase 14 (Q16539 whole entry): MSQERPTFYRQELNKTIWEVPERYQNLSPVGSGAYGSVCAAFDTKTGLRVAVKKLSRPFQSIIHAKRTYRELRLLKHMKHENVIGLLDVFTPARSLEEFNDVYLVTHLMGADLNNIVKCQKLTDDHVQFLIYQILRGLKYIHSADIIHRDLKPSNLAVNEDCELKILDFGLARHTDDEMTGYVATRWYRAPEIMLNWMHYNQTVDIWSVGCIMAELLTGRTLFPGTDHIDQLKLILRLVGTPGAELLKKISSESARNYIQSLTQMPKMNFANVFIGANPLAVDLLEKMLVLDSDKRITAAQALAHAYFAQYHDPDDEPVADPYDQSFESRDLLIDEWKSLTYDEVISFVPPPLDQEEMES
# Adenosine receptor A3 = target: T4, Adenosine receptor A3 (Homo sapiens, UniProt P0DMS8); type: cell membranes, CHO-K1, Membrane; conditions: for Ki: read-out: Ki
# T4 sequence (P0DMS8 whole entry): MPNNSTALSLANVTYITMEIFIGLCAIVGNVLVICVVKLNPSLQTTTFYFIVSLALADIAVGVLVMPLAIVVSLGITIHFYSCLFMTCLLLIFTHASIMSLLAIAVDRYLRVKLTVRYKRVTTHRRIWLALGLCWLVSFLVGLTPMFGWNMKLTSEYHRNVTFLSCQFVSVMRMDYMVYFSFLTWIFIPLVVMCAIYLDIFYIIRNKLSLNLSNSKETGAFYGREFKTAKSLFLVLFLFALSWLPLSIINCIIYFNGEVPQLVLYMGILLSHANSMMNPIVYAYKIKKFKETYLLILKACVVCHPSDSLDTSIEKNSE
# [12] = DRUGMATRIX: Glutamate, AMPA radioligand binding (ligand: [3H] AMPA); type: cell membranes, Rattus norvegicus, Wistar, Cerebral cortex, Membrane; conditions: Not Active = under 50% inhibition at 10 µM
# Sequence of Delta-type opioid receptor (P41143 whole entry): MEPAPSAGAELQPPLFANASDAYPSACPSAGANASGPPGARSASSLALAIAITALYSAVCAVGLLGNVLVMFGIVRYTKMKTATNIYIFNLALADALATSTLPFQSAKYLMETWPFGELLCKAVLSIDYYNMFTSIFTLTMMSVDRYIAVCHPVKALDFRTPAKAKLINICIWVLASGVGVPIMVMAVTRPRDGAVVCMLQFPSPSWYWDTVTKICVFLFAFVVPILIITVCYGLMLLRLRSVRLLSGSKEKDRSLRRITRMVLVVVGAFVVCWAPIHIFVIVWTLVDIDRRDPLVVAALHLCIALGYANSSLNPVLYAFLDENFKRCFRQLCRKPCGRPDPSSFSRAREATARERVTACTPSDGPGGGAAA
Structure (SMILES),IC50 [1],Ki [1],IC50 [2],IC50 [3],Ki [3],IC50 (Carbonic anhydrase 2),IC50 [4],IC50 (D(1A) dopamine receptor),IC50 (Substance-P receptor),IC50 [5],Ki [5],IC50 [6],Ki [6],IC50 (Melanocortin receptor 3),IC50 [7],IC50 (Interstitial collagenase),IC50 (D(3) dopamine receptor),IC50 [8],IC50 [9],Ki [9],further results
CCOC(=O)[C@H](CCc1ccccc1)N[C@@H](C)C(=O)N1[C@H](C(=O)O)C[C@@H]2CCC[C@@H]21,Not Active,Not Active,Not Active,Not Active,Not Active,Not Active,Not Active,Not Active,Not Active,Not Active,Not Active,Not Active,Not Active,Not Active,Not Active,Not Active,Not Active,Not Active,Not Active,Not Active,IC50 (Progesterone receptor): Not Active; IC50 [10]: Not Active; Ki [10]: Not Active; IC50 [11]: Not Active; IC50 (Adenosine receptor A3; cho-k1): Not Active; IC50 [12]: Not Active; Ki [12]: Not Active
NNC(=O)c1ccncc1 [ISONIAZID],Not Active,Not Active,Not Active,Not Active,Not Active,Not Active,Not Active,Not Active,Not Active,Not Active,Not Active,Not Active,Not Active,Not Active,Not Active,Not Active,Not Active,Not Active,Not Active,Not Active,IC50 (Progesterone receptor): Not Active; IC50 [10]: Not Active; Ki [10]: Not Active; IC50 [11]: Not Active; IC50 (Adenosine receptor A3; cho-k1): Not Active; IC50 [12]: Not Active; Ki [12]: Not Active
Nc1nnc(-c2cccc(Cl)c2Cl)c(N)n1 [LAMOTRIGINE],Not Active,Not Active,Not Active,Not Active,Not Active,Not Active,Not Active,Not Active,Not Active,Not Active,Not Active,Not Active,Not Active,Not Active,Not Active,Not Active,Not Active,Not Active,Not Active,Not Active,IC50 (Progesterone receptor): Not Active; IC50 [10]: Not Active; Ki [10]: Not Active; IC50 [11]: Not Active; IC50 (Adenosine receptor A3; cho-k1): Not Active; IC50 [12]: Not Active; Ki [12]: Not Active
C[C@]12Cc3c[nH]nc3C[C@@H]1CC[C@@H]1[C@@H]2CC[C@@]2(C)[C@H]1CC[C@]2(C)O [STANOZOLOL],Not Active,Not Active,Not Active,Not Active,Not Active,Not Active,Not Active,Not Active,Not Active,Not Active,Not Active,Not Active,Not Active,Not Active,Not Active,Not Active,Not Active,Not Active,Not Active,Not Active,IC50 (Progesterone receptor; read-out: IC50): 3.71 µM; Ki (Progesterone receptor; read-out: Ki): 483 nM; IC50 [10]: Not Active; Ki [10]: Not Active; IC50 [11]: Not Active; IC50 (Adenosine receptor A3; read-out: IC50): 8.33 µM; Ki (Adenosine receptor A3): 4.71 µM; IC50 [12]: Not Active; Ki [12]: Not Active
CC1=C(/C=C/C(C)=C/C=C/C(C)=C\C(=O)O)C(C)(C)CCC1 [ISOTRETINOIN],Not Active,Not Active,Not Active,Not Active,Not Active,Not Active,Not Active,Not Active,Not Active,Not Active,Not Active,Not Active,Not Active,Not Active,Not Active,Not Active,Not Active,Not Active,Not Active,Not Active,IC50 (Progesterone receptor): Not Active; IC50 [10]: Not Active; Ki [10]: Not Active; IC50 ([11]; read-out: IC50): 2530 nM; IC50 (Adenosine receptor A3; read-out: IC50): 4.17 µM; Ki (Adenosine receptor A3): 2.36 µM; IC50 [12]: Not Active; Ki [12]: Not Active
NC(CO)(CO)CO [TROMETHAMINE],Not Active,Not Active,Not Active,Not Active,Not Active,Not Active,Not Active,Not Active,Not Active,Not Active,Not Active,Not Active,Not Active,Not Active,Not Active,Not Active,Not Active,Not Active,Not Active,Not Active,IC50 (Progesterone receptor): Not Active; IC50 [10]: Not Active; Ki [10]: Not Active; IC50 [11]: Not Active; IC50 (Adenosine receptor A3; cho-k1): Not Active; IC50 [12]: Not Active; Ki [12]: Not Active

# Reference: ChEMBL document CHEMBL1909046, “DrugMatrix in vitro pharmacology data”
